Some test systems named below: OVCAR-5; U-251; A549; MDA-MB-435; SNB-19; DU-145; KM12; HOP-62; HL-60; TK-10; SW-620; ACHN; HOP-92; Malme-3M; SNB-75; HCC 2998; COLO 205; EKVX; T47D; MDA-N.
What all share (experiment): NCI anticancer screen, dose series, 48 h

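How tested: cells in 96-well plates exposed to compound for 48 hours at five concentrations. The concentration for 50% growth inhibition is given as GI50.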 Activity calls are given as the source filed them. No stated cut-off is given here; in the data, active = GI50 up to about 1.1 µM and inactive = higher. Bounds are passed on as bounds.

For the molecule `N=c1oc2cc(O)ccc2cc1C(=O)Nc1ccccn1`, the GI50 in the experiment on OVCAR-5 is > 100 µM (inactive); in the experiment with U-251, 44.5 µM (inactive); with A549, > 100 µM (inactive); in the experiment with MDA-MB-435, 44.5 µM (inactive); with SNB-19 it was 92.9 µM (inactive); in the experiment on DU-145, 25.4 µM (inactive). Further, the GI50 in the experiment on KM12 was 55 µM (inactive); in the experiment with HOP-62, > 100 µM (inactive); in the experiment with HL-60, 30.5 µM (inactive); in the experiment on TK-10, 41.9 µM (inactive); with SW-620, 77.1 µM (inactive); with ACHN, 23.4 µM (inactive). Also, the GI50 in the experiment with HOP-92 is > 100 µM (inactive); in the experiment on Malme-3M it was 47.2 µM (inactive); with SNB-75, 36.5 µM (inactive); with HCC 2998, 34.3 µM (inactive); with COLO 205, 14 µM (inactive); in the experiment on EKVX, 40.2 µM (inactive). Besides, the GI50 in the experiment on T47D is 32.7 µM (inactive).

With `COc1cc(C2C3=C(COC3=O)OC(C)(C)Oc3cc4c(cc32)OCO4)cc(OC)c1OC` (stereo unspecified), the GI50 is 3.72 µM (inactive) with OVCAR-5; 0.447 µM (active) with U-251; 0.344 µM (active) in the experiment on A549; 0.167 µM (active) with MDA-MB-435; 0.245 µM (active) in the experiment with SNB-19; 0.34 µM (active) in the experiment with DU-145. In addition, the GI50 with KM12 was 0.212 µM (active); with HOP-62, 0.509 µM (active); with HL-60 it was 0.236 µM (active); in the experiment on SW-620, 0.348 µM (active); with MDA-N, 0.212 µM (active); in the experiment with ACHN, 0.682 µM (active). The GI50 with HOP-92 was 3.58 µM (inactive); with Malme-3M it was > 37.8 µM (inactive); in the experiment with SNB-75 it was 0.253 µM (active); in the experiment on HCC 2998 it was 0.535 µM (active); with COLO 205, 0.236 µM (active); with EKVX it was 0.366 µM (active).

`O=C1CC(C(=O)N2CCCCC2)n2c(=O)n(-c3ccccc3)c(=O)n2C1` (stereo unspecified): the GI50 with OVCAR-5, in the experiment with A549, in the experiment on SNB-19, with DU-145, with KM12 and in the experiment with HOP-62 was > 100 µM (inactive) throughout. Also, the GI50 in the experiment with TK-10, in the experiment with MDA-N, in the experiment on ACHN, with Malme-3M, in the experiment with SNB-75 and in the experiment on HCC 2998 was > 100 µM (inactive) each time. The GI50 in the experiment on COLO 205 and in the experiment on EKVX was > 100 µM (inactive) throughout.

With `CCOc1ccccc1NC(=O)C1=C(C)NC(C)=C(C(=O)Nc2ccccc2OCC)C1c1ccc2c(c1)OCO2`, the GI50 is 53.2 µM (inactive) in the experiment with OVCAR-5; 47.5 µM (inactive) in the experiment on U-251; 28.2 µM (inactive) in the experiment with A549; 95.9 µM (inactive) with SNB-19; 11.8 µM (inactive) with KM12; 37.4 µM (inactive) with HOP-62. In addition, the GI50 in the experiment on HL-60 was 10.7 µM (inactive); in the experiment on TK-10 it was 76.6 µM (inactive); in the experiment with SW-620, 38.4 µM (inactive); in the experiment on ACHN, 36.8 µM (inactive); in the experiment with HOP-92 it was 7.36 µM (inactive); with Malme-3M, 26.2 µM (inactive). Besides, the GI50 was 3.53 µM (inactive) in the experiment with SNB-75, 10.1 µM (inactive) in the experiment on HCC 2998, 18.2 µM (inactive) in the experiment with COLO 205 and 39.6 µM (inactive) in the experiment on EKVX.

For `O=c1ccn(C2OC(CO)C(P(=O)(O)O)C2O)c(=O)[nH]1` (stereo unspecified), the GI50 with OVCAR-5, with U-251, in the experiment with A549, with SNB-19, with DU-145 and in the experiment on KM12 was > 100 µM (inactive) in each case. Also, the GI50 in the experiment with HOP-62, in the experiment with HL-60, in the experiment on TK-10, with SW-620, in the experiment with MDA-N and with ACHN was > 100 µM (inactive) in each case. In addition, the GI50 in the experiment on HOP-92, with Malme-3M, with SNB-75, in the experiment on HCC 2998, with EKVX and in the experiment on T47D was > 100 µM (inactive) in each case.

For `O=C(/C=C/c1ccccc1)CCC1C(=O)NC(=S)NC1=O`, the GI50 in the experiment with OVCAR-5, in the experiment with U-251, in the experiment with A549, in the experiment on MDA-MB-435, with SNB-19 and in the experiment on DU-145 was > 100 µM (inactive) throughout. For the same molecule, the GI50 in the experiment on SW-620, in the experiment on ACHN, with HOP-92, in the experiment with HCC 2998, with COLO 205 and in the experiment on T47D was > 100 µM (inactive) each time.

`N#CI1OC(C(F)(F)F)(C(F)(F)F)c2ccccc21`: the GI50 in the experiment on OVCAR-5 is 19.2 µM (inactive); in the experiment with U-251, 21.2 µM (inactive); with A549, 62.5 µM (inactive); with MDA-MB-435, 17.8 µM (inactive); in the experiment with DU-145 it was 18.6 µM (inactive); in the experiment with KM12, 17 µM (inactive). For the same molecule, the GI50 was 57.5 µM (inactive) with HOP-62; 5.77 µM (inactive) in the experiment with HL-60; 19 µM (inactive) with TK-10; > 10 µM (inactive) with SW-620; 18.2 µM (inactive) in the experiment with ACHN; 16.3 µM (inactive) in the experiment with HOP-92. The GI50 in the experiment on SNB-75 was 13.9 µM (inactive); with HCC 2998 it was 20 µM (inactive); in the experiment with COLO 205 it was 12.9 µM (inactive); in the experiment on EKVX it was 14.6 µM (inactive); in the experiment with T47D it was 18.1 µM (inactive).

On to `CC1=CP(=O)(OC(C)C)CC(C)=C1Cl` (stereo unspecified), for which the GI50 in the experiment with OVCAR-5, in the experiment with U-251, with A549, in the experiment on SNB-19, in the experiment on KM12 and in the experiment with HOP-62 was > 100 µM (inactive) in each case. The GI50 was > 100 µM (inactive) with HL-60; > 100 µM (inactive) in the experiment on TK-10; 70.5 µM (inactive) in the experiment with SW-620; > 100 µM (inactive) with ACHN; > 100 µM (inactive) in the experiment on HOP-92; > 100 µM (inactive) with Malme-3M. For the same molecule, the GI50 in the experiment on SNB-75, with HCC 2998, in the experiment on COLO 205 and in the experiment with EKVX was > 100 µM (inactive) throughout.

As to `COc1ccc2[nH]c3c([N+](=O)[O-])ccc(NCCCN(C)C)c3/c(=N/CCCN(C)C)c2c1`, the GI50 is 1.74 µM (inactive) with A549; 7.62 µM (inactive) with MDA-MB-435; 3.24 µM (inactive) in the experiment on DU-145; 1.08 µM (active) with KM12; 1.4 µM (inactive) with HOP-62; 1.77 µM (inactive) in the experiment on HL-60. The GI50 is 2.36 µM (inactive) in the experiment with TK-10; 1.63 µM (inactive) in the experiment with SW-620; 3.33 µM (inactive) with HOP-92; 9.75 µM (inactive) with Malme-3M; 1.84 µM (inactive) in the experiment with SNB-75; 1.24 µM (inactive) in the experiment on HCC 2998. For the same molecule, the GI50 in the experiment with EKVX is 2.55 µM (inactive); in the experiment on T47D, > 10 µM (inactive).

Consider `CN1CCc2c(sc3nc(Nc4ccccc4)n(N)c(=O)c23)C1`, for which the GI50 in the experiment on OVCAR-5, in the experiment on A549, in the experiment on SNB-19, with DU-145, with KM12 and with HOP-62 was > 100 µM (inactive) each time. For the same molecule, the GI50 in the experiment with HL-60 is 19.8 µM (inactive); in the experiment on TK-10 it was > 100 µM (inactive); with MDA-N it was > 100 µM (inactive); in the experiment with ACHN, > 100 µM (inactive); in the experiment on COLO 205, 42.8 µM (inactive); with EKVX, > 100 µM (inactive). Further, the GI50 with T47D was > 100 µM (inactive).

In the case of `O=C1/C(=C/c2ccc([N+](=O)[O-])cc2)CCCc2ccccc21`, the GI50 was > 100 µM (inactive) in the experiment with OVCAR-5; > 100 µM (inactive) in the experiment with U-251; > 100 µM (inactive) in the experiment on A549; > 100 µM (inactive) with MDA-MB-435; 32.1 µM (inactive) in the experiment with SNB-19; > 100 µM (inactive) with DU-145. Besides, the GI50 in the experiment on KM12 is > 100 µM (inactive); in the experiment with HOP-62 it was 54.3 µM (inactive); in the experiment on HL-60 it was > 100 µM (inactive); with TK-10, > 100 µM (inactive); in the experiment with SW-620 it was > 100 µM (inactive); with MDA-N it was > 100 µM (inactive). Besides, the GI50 with ACHN was > 100 µM (inactive); in the experiment on HOP-92, > 100 µM (inactive); in the experiment with Malme-3M, > 100 µM (inactive); in the experiment with SNB-75, 83.4 µM (inactive); in the experiment with HCC 2998, > 100 µM (inactive); with COLO 205, > 100 µM (inactive). The GI50 in the experiment on EKVX is 48.6 µM (inactive).

For `O=C1CC(c2ccccc2Cl)Oc2ccccc21` (stereo unspecified), the GI50 is 27.7 µM (inactive) in the experiment with U-251; 18.5 µM (inactive) in the experiment with MDA-MB-435; 34.9 µM (inactive) with SNB-19; 45 µM (inactive) in the experiment on DU-145; 27 µM (inactive) with KM12; 25.9 µM (inactive) with HOP-62. Moreover, the GI50 is 32.4 µM (inactive) in the experiment on HL-60; 98.6 µM (inactive) with TK-10; 25.5 µM (inactive) in the experiment with SW-620; 25 µM (inactive) with HOP-92; 22.7 µM (inactive) in the experiment on SNB-75; 71.1 µM (inactive) with HCC 2998. Besides, the GI50 in the experiment on COLO 205 is 25.4 µM (inactive); in the experiment with EKVX, 14 µM (inactive); in the experiment on T47D, 43 µM (inactive).

The values above are taken from ChEMBL document CHEMBL1201862, “PubChem BioAssay data set” (2004).
